Assay results published in patent US20140357487A1, “PLANTS HAVING INCREASED TOLERANCE TO HERBICIDES” (BASF SE, priority 2011, published 2014).

Legend:
[1] = tested on: Blepharisma HPPD; assay: HPPD activity assay, Blepharisma HPPD; assay type: biochemical; conditions: normalized on Arabidopsis wild-type HPPD
Method: (§1) HPPD produces homogentisic acid and CO2 from 4-hydroxyphenylpyruvate (4-HPP) and O2. The activity assay for HPPD is based on the analysis of homogentisic acid by reversed phase HPLC.
(§2) The assay mixture can contain 150 mM potassium phosphate buffer pH 7.0, 50 mM L-ascorbic acid, 1 μM FeSO4 and 7 μg of purified enzyme in a total volume of 1 ml.
(§3) Inhibitors are dissolved in DMSO (dimethylsulfoxide) to a concentration of 20 mM or 0.5 mM, respectively. From this stock solution serial five-fold dilutions are prepared in DMSO, which are used in the assay. The respective inhibitor solution accounts for 1% of the assay volume. […]
(§4) Activities are normalized by setting the uninhibited enzyme activity to 100%. IC50 values are calculated using non-linear regression. […]
(§5) Inhibitors are dissolved in DMSO (dimethylsulfoxide) to a concentration of 0.5 mM. […] IC50 values are calculated using non-linear regression.
(§6) Using methods which are described in the above examples or well known in the art, purified, recombinant wildtype HPPD enzymes are characterized with respect to their kinetic properties and sensitivity towards HPPD inhibiting herbicides. Apparent michaelis constants (Km) and maximal reaction velocities (Vmax) are calculated by non-linear regression with the software GraphPad Prism 5 (GraphPad Software, La Jolla, USA) using a substrate inhibition model. […]

[2] = tested on: Kordia HPPD; assay: HPPD activity assay, Kordia HPPD; assay type: biochemical; conditions: normalized on Arabidopsis wild-type HPPD
Method: as §1, §2, §3, §4, §5, §6

[3] = tested on: Alopecurus HPPD; assay: HPPD activity assay, Alopecurus HPPD; assay type: biochemical; conditions: normalized on Arabidopsis wild-type HPPD
Method: as §1, §2
Inhibitors are dissolved in DMSO (dimethylsulfoxide) to a concentration of 20 mM or 0.5 mM, respectively. From this stock solution serial five-fold dilutions are prepared in DMSO, which are used in the assay. The respective inhibitor solution accounts for 1% of the assay volume. Thus, final inhibitor concentrations range from 200 μM to 2.5 nM or from 5 μM to 63 pM, respectively. After a preincubation of 30 min the reaction is started by adding 4-HPP to a final concentration of 0.1 mM. The reaction is allowed to proceed for 120 min at room temperature. The reaction is stopped by addition of 100 μl of 4.5 M phosphoric acid.
Activities are normalized by setting the uninhibited enzyme activity to 100%. IC50 values are calculated using non-linear regression.
The assay mixture can contain 150 mM potassium phosphate buffer pH 7.0, 50 mM L-ascorbic acid, 100 μM Catalase (Sigma-Aldrich), 1 μM FeSO4 and 0.2 units of purified HPPD enzyme in a total volume of 505 μl. […]
as §5
Using methods which are described in the above examples or well known in the art, purified, recombinant wildtype HPPD enzymes are characterized with respect to their kinetic properties and sensitivity towards HPPD inhibiting herbicides. Apparent michaelis constants (Km) and maximal reaction velocities (Vmax) are calculated by non-linear regression with the software GraphPad Prism 5 (GraphPad Software, La Jolla, USA) using a substrate inhibition model. […] Weighted means (by standard error) of Km and […] values are calculated from at least three independent experiments. […]

[4] = tested on: Rhodococcus HPPD1; assay: HPPD activity assay, Rhodococcus HPPD1; assay type: biochemical; conditions: normalized on Arabidopsis wild-type HPPD
Method: as §1, §2, §3, §4, §5, §6

[5] = tested on: transgenic soybean plants, Arabidopsis M335H, event SDS-9977; assay: Greenhouse testing of transgenic soybean plants, Arabidopsis M335H; assay type: in vivo, Glycine max; conditions: soybean SDS-9977, 5 days after herbicide treatment, average of 8 T1
Source text: Various methods for the production of stably transformed plants are well known in the art. Coumarone-derivative herbicide tolerant soybean (Glycine max) or corn (Zea mays) plants can be produced by a method described by Olhoft et al. (US patent 2009/0049567). Briefly, HPPD or HST encoding polynucleotides are cloned into a binary vector using standard cloning techniques as described by Sambrook et al. (Molecular cloning (2001) Cold Spring Harbor Laboratory Press). The final vector construct contains an HPPD or HST encoding sequence flanked by a promoter sequence (e.g. the ubiquitin promoter (PcUbi) sequence) and a terminator sequence (e.g. the nopaline synthase terminator (NOS) sequence) and a resistance marker gene cassette (e.g. AHAS) (FIG. 2). Optionally, the HPPD or HST gene can provide the means of selection. Agrobacterium-mediated transformation is used to introduce the DNA into soybean's axillary meristem cells at the primary node of seedling explants. After inoculation and co-cultivation with Agrobacteria, the explants are transferred to shoot induction medium without selection for one week. The explants are subsequently transferred to shoot induction medium with 1-3 μM imazapyr (Arsenal) for 3 weeks to select for transformed cells. Explants with healthy callus/shoot pads at the primary node are then transferred to shoot elongation medium containing 1-3 μM imazapyr until a shoot elongates or the explant dies. After regeneration, transformants are transplanted to soil in small pots, placed in growth chambers (16 hr day/8 hr night; 25° C. day/23° C. night; 65% relative humidity; 130-150 mE m−2 s−1) and subsequently tested for the presence of the T-DNA via Taqman analysis. After a few weeks, healthy, transgenic positive, single copy events are transplanted to larger pots and allowed to grow in the growth chamber. Transformation of corn plants is done by a method described by McElver and Singh (WO 2008/124495). Plant transformation vector constructs containing HPPD or HST sequences are introduced into maize immature embryos via Agrobacterium-mediated transformation. Transformed cells are selected in selection media supplemented with 0.5-1.5 μM imazethapyr for 3-4 weeks. Transgenic plantlets are regenerated on plant regeneration media and rooted afterwards. Transgenic plantlets are subjected to TaqMan analysis for the presence of the transgene before being transplanted to potting mixture and grown to maturity in greenhouse. Arabidopsis thaliana is transformed with HPPD or HST sequences by floral dip method as described by McElver and Singh (WO 2008/124495). Transgenic Arabidopsis plants are subjected to Tag Man analysis for analysis of the number of integration loci. Transformation of Oryza sativa (rice) are done by protoplast transformation as described by Peng et al. (U.S. Pat. No. 6,653,529)
Transgenic plants expressing heterologous HPPD or HST enzymes are tested for tolerance against coumarone-derivative herbicides in greenhouse experiments.
For post emergence treatment, the test plants are first grown to a height of 3 to 15 cm, depending on the plant habit, and only then treated with the herbicides. For this purpose, the test plants are either sown directly and grown in the same containers, or they are first grown separately and transplanted into the test containers a few days prior to treatment.
Depending on the species, the plants are kept at 10-25° C. or 20-35° C. The test period extends over 3 weeks. During this time, the plants are tended and their response to the individual treatments is evaluated. […] Tolerance to coumarone-derivative herbicides can also be assessed in Arabidopsis. In this case transgenic Arabidopsis thaliana plants are assayed for improved tolerance to coumarone-derivative herbicides in 48-well plates. Seeds are surface sterilized by stirring for 5 min in ethanol+water (70+30 by volume), rinsing one time with ethanol+water (70+30 by volume) and two times with a sterile, deionized water. […]

SMILES	Normalized tolerance index TI [1]	Normalized tolerance index TI [2]	Normalized tolerance index TI [3]	Normalized tolerance index TI [4]	Injury evaluation, scale of 1-100, bleaching phenotype ([5]; 6.25 g/ha)	Injury evaluation, scale of 1-100, bleaching phenotype ([5]; 25 g/ha)	Injury evaluation, scale of 1-100, bleaching phenotype ([5]; 100 g/ha)	Injury evaluation, scale of 1-100, bleaching phenotype ([5]; 2.5 g/ha)	Injury evaluation, scale of 1-100, bleaching phenotype ([5]; 10 g/ha)	Injury evaluation, scale of 1-100, bleaching phenotype ([5]; 40 g/ha)
CC1=NOC(c2c(Cl)ccc(C3=C(O)c4ncccc4C(C)(C)S3(=O)=O)c2Cl)C1 (centres unmarked) [Inhibitor 1, 7-[2,4-dichloro-3-(3-methyl-4,5-dihydroisoxazol-5-yl)phenyl]-5,5-dimethyl-6,6-dioxo-thiopyrano[4,3-b]pyridin-8-ol]	12.4	22	2.5	39						
COCCOCc1c(Cl)ccc(C2=C(O)c3ncccc3C(C)(C)S2(=O)=O)c1Cl [Inhibitor 3, 7-[2,4-dichloro-3-(2-methoxyethoxymethyl)phenyl]-5,5-dimethyl-6,6-dioxo-thiopyrano[4,3-b]pyridin-8-ol]	0.5	0.7		1.6						
Cc1c(C(=O)c2cnn(C)c2O)ccc(S(C)(=O)=O)c1C1=NOCC1 [Topramezone, reference compound]					8	4	15			
CC1(C)c2cccnc2C(O)=C(c2ccc(Cl)nc2Cl)S1(=O)=O [Inhibitor 2, 7-(2,6-dichloro-3-pyridyl)-5,5-dimethyl-6,6-dioxo-thiopyrano[4,3-b]pyridin-8-ol]			1.4					1	1	5
